Blank lines part the entries; values can stand above or below the compound they belong to. Non-standard residues stand in square brackets, D forms with d. Residues, ends and D or L forms follow the SMILES beside them. *: point of attachment. dPhe(4-Cl) = N[C@H](Cc1ccc(Cl)cc1)C(=O)O; Ahp = NCCCCCCC(=O)O; Bn = c1ccc(C*)cc1
Key:
MC4-R [1] = molecular target: T1, MC4-R (Homo sapiens, UniProt P32245); assay: cAMP functional activity assay in HEK-293 cells, normal system; format: cell-based; design: expressed in transfected cells; host or cells: HEK-293; settings: for intrinsic activity at MC4-R in a normal system: NDP-α-MSH = 1.0; for functional status at MC4-R in cAMP assay: normal system, 1 μM concentration where stated
T1 sequence (P32245 whole entry): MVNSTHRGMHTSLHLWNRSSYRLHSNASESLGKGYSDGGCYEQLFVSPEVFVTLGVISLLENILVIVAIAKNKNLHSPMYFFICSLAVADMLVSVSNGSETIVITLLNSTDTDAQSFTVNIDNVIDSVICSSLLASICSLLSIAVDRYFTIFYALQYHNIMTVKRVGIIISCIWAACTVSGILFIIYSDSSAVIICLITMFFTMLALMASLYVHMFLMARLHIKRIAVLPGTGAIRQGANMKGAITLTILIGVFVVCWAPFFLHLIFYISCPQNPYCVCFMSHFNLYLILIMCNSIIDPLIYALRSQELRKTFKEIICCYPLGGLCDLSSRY

MC3-R = MC3-R (Homo sapiens, UniProt P41968); assay: Competitive inhibition assay using [I^125]-NDP-α-MSH, hMC3-R membranes; format: binding; design: expressed in transfected cells; settings: for inhibition at 1 µM: 1 μM test compound, read-out: Inhibition at 1 μM (NDP-α-MSH) In Normal System, MC3-R
MC3-R, sequence (P41968 whole entry): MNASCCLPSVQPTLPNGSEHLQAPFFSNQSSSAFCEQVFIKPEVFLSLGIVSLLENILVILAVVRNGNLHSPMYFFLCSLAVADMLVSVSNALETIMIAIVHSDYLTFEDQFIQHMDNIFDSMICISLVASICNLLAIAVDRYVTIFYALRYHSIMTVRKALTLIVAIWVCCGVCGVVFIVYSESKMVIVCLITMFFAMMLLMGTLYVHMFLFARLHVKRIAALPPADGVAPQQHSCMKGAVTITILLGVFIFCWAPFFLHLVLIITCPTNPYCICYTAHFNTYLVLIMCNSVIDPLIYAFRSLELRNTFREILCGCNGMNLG
How it was run: (§1)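 Tracer was 0.4 nM for MC3-R and MC5-R, 0.2 nM for MC4-R and 0.1 nM for MC1-R. Bound radioactivity was gamma-counted after filtration; values are triplicate means, with results below 0% reported as 0%.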

[2] = ICV food intake and body weight change; format: in vivo; settings: rat, 1 nmol, 24 hours
Description: (§2) ICV food intake and body weight change. Change in food intake and body weight was evaluated for selected compounds. Rats with indwelling intracerebroventricular cannulas (ICV rats) were obtained from Hilltop Lab Animals, Inc. (Scottdale, Pa.). Animals were individually housed in conventional plexiglass hanging cages and maintained on a controlled 12 hour on/off light cycle. Water and powdered (LabDiet, 5P00 Prolab RMH 3000) or pelleted (Harlan Teklad 2018 18% Protein Rodent Diet) food was provided ad libitum. For 1 week before treatment, 24-hour food intake and body weight change was recorded to assess a baseline for the group during vehicle treatment. The rats were dosed ICV with vehicle or selected compounds (1-3 nmol). The changes in body weight and food intake for the 24 hour period after dosing were determined. The changes in body weight and food intake for the 48 hour and 72 hour periods after dosing were also measured to determine reversal of changes in body weight and food intake effects back to baseline levels.

[3] = IV and IP food intake and body weight change, rats; format: in vivo; settings: rat, IV, dose not stated; for decrease in body weight: 24 hours
Description: as §2, with “IV and IP food” for “ICV food”, “compounds. Male Sprague-Dawley rats or male C57BL/6 mice” for “compounds. Rats with indwelling intracerebroventricular cannulas (ICV rats)”, “were utilized.” for “were obtained from Hilltop Lab Animals, Inc. (Scottdale, Pa.).”, “dosed IV” for “dosed ICV”, “compounds (0.5-3 mg/kg, and in some cases up to 10 mg/Kg) or dosed intraperitoneally (IP) with vehicle or selected compounds (0.5-10 mg/kg, and in some cases up to 50 mg/kg). Mice were dosed IP.” for “compounds (1-3 nmol).”, “to determined” for “to determine”

MC4-R [4] = molecular target: T1, MC4-R; assay: Competitive inhibition assay using [I^125]-NDP-α-MSH, hMC4-R membranes; format: binding; design: host or cells: TREx-293 (HEK-293 stably expressing Tet repressor); settings: for inhibition at 1 µM: 1 μM test compound, read-out: Inhibition at 1 μM (NDP-α-MSH) In Normal System, MC4-R; for Ki: read-out: Ki (nM) (NDP-α-MSH) In Normal System, MC4-R
How it was run: as §1

[5] = Penile erection induction in male rats; format: in vivo; settings: rat
How it was run: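 Male Sprague-Dawley rats (200-250 g), groups of 4-8, dosed IV or ICV at various doses and observed individually for penile erections. Only statistically relevant increases over vehicle-control mean PEs count as induction; IV responses below 1.0 PEs/rat treated as equivocal, some retested ICV.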

MC4-R [6] = molecular target: T1, MC4-R; assay: cAMP agonist stimulation, low receptor density system (0.1 ng/mL doxycycline); settings: 0.1 ng/mL doxycycline, low receptor density hMC4-R system; NDP-α-MSH maximal cAMP = 1.0
MC1-R = molecular target: T2, MC1-R (Mus musculus, UniProt Q01727); assay: Competitive inhibition assay using [I^125]-NDP-α-MSH, B-16 mouse melanoma cell membranes; format: binding; settings: for inhibition at 1 µM: 1 μM test compound, read-out: Inhibition at 1 μM (NDP-α-MSH) In Normal System, MC1-R; for Ki: read-out: Ki (nM) (NDP-α-MSH) In Normal System, MC1-R
T2 construct: B-16 mouse melanoma cells (containing MC1-R); endogenous in cells
T2 sequence (Q01727 whole entry): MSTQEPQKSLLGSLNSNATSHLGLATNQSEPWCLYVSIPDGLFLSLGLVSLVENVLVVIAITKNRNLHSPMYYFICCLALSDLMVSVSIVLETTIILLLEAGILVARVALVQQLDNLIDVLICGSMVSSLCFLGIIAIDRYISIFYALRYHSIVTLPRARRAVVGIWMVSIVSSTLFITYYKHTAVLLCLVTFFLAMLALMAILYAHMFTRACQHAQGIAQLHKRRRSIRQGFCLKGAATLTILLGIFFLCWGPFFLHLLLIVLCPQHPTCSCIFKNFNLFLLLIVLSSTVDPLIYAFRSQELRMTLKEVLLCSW
How it was run: as §1

MC5-R = MC5-R (Homo sapiens, UniProt P33032); assay: Competitive inhibition assay using [I^125]-NDP-α-MSH, hMC5-R membranes; format: binding; design: expressed in transfected cells; settings: for inhibition at 1 µM: 1 μM test compound, read-out: Inhibition at 1 μM (NDP-α-MSH) In Normal System, MC5-R
MC5-R, sequence (P33032 whole entry): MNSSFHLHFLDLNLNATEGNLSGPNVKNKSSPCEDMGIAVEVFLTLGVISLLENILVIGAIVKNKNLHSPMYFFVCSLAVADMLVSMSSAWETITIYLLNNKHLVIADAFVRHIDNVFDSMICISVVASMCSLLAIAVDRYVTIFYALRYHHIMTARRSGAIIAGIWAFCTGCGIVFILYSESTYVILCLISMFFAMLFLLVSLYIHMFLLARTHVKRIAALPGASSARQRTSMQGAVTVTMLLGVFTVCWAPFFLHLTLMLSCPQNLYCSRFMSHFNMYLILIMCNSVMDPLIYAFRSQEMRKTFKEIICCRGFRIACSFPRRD
How it was run: as §1

MC4-R [7] = molecular target: T1, MC4-R; assay: cAMP agonist stimulation, high receptor density system (10 ng/mL doxycycline); settings: for Efficacy/Intrinsic Activity: 10 ng/mL doxycycline, high receptor density hMC4-R system, NDP-α-MSH maximal cAMP = 1.0
[8] = IP (and IN) food intake, mice; format: in vivo; settings: mouse, 4 hours
Description: IV and IP food intake and body weight change. Change in food intake and body weight was evaluated for selected compounds. Male Sprague-Dawley rats or male C57BL/6 mice were utilized. Animals were individually housed in conventional plexiglass hanging cages and maintained on a controlled 12 hour on/off light cycle. Water and powdered (LabDiet, 5P00 Prolab RMH 3000) or pelleted (Harlan Teklad 2018 18% Protein Rodent Diet) food was provided ad libitum. For 1 week before treatment, 24-hour food intake and body weight change was recorded to assess a baseline for the group during vehicle treatment. The rats were dosed IV with vehicle or selected compounds (0.5-3 mg/kg, and in some cases up to 10 mg/Kg) or dosed intraperitoneally (IP) with vehicle or selected compounds (0.5-10 mg/kg, and in some cases up to 50 mg/kg). Mice were dosed IP. […] The changes in body weight and food intake for the 48 hour and 72 hour periods after dosing were also measured to determined reversal of changes in body weight and food intake effects back to baseline levels.

Structure (SMILES): N=C(N)NCCC[C@H](NC(=O)[C@@H](Cc1ccc(Cl)cc1)NC(=O)[C@H](COCc1ccccc1)NC(=O)CCCCCCN)C(=O)N[C@@H](Cc1c[nH]c2ccccc12)C(=O)N[C@@H](CC(=O)O)C(=O)N[C@@H](Cc1ccccc1)C(N)=O [Example 14, NH2—(CH2)6—C(═O)-Ser(Bzl)-D-Phe(4-Cl)-Arg-Trp-Asp-Phe-NH2] (H-[Ahp]S(Bn)[dPhe(4-Cl)]RWDF-NH2)
intrinsic activity at MC4-R in a normal system (MC4-R [1]; normal receptor density system): 0.5
functional status at MC4-R in cAMP assay (MC4-R [1]): partial agonist (intrinsic activity between 0.1 (10%) and 0.7 (70%) is classified as a partial agonist)
inhibition at 1 µM (MC3-R): 66%
decrease in body weight [2]: −2%
decrease in food intake [2]: 50%
24 hour decrease in food intake [3]: 30%
decrease in body weight [3]: 2%
inhibition at 1 µM (MC4-R [4]): 99%
Penile Erection IV ([5]; IV): No
penile erection response ([5]; IV): no penile erection response
Efficacy/Intrinsic Activity (MC4-R [6]): None
inhibition at 1 µM (MC1-R): 38%
inhibition at 1 µM (MC5-R): 52%
EC50 (MC4-R [7]): 141 nM
Efficacy/Intrinsic Activity (MC4-R [7]): 0.64

Structure (SMILES): N=C(N)NCCC[C@H]1C(=O)N2C(CC[C@@H]2COc2ccc3ccccc3c2)N1C(=O)[C@@H](Cc1ccc(Cl)cc1Cl)NC(=O)[C@@H]1CC[C@H](c2ccccc2)N1 (stereo partly drawn) [Example 19, (2S,5R)-5-Phenyl-pyrrolidine-2-carboxylic acid {(R)-1-(2,4-dichloro-benzyl)-2-[(2S,5R)-2-(3-guanidino-propyl)-5-(naphthalen-2-yloxymethyl)-3-oxo-hexahydro-pyrrolo[1,2-a]imidazol-1-yl]-2-oxo-ethyl}-amide]
functional status at MC4-R in cAMP assay (MC4-R [1]): no intrinsic activity (intrinsic activity below 0.1 (10%) is classified as inactive or having no intrinsic activity)
inhibition at 1 µM (MC3-R): 43%
decrease in body weight [2]: 3%
decrease in food intake [2]: 38%
24 hour decrease in food intake [3]: 1%
decrease in body weight [3]: 2%
inhibition at 1 µM (MC4-R [4]): 97%
Penile Erection IV ([5]; IV): No
penile erection response ([5]; IV, 1 μg/kg): no penile erection response
Efficacy/Intrinsic Activity (MC4-R [6]): None
inhibition at 1 µM (MC1-R): 16%
Ki (MC1-R): 1040 nM
inhibition at 1 µM (MC5-R): 86%
EC50 (MC4-R [7]): 173 nM
Efficacy/Intrinsic Activity (MC4-R [7]): 0.22

Structure (SMILES): C[C@H](NC(=O)[C@H](Cc1c[nH]c2ccccc12)NC(=O)[C@H](CCCNC(=N)N)NC(=O)[C@@H](Cc1ccc(Cl)cc1)NC(=O)[C@H](COCc1ccccc1)NC(=O)CCCCCCN)C(N)=O [Example 15, NH2—(CH2)6—C(═O)-Ser(Bzl)-D-Phe(4-Cl)-Arg-Trp-Ala-NH2] (H-[Ahp]S(Bn)[dPhe(4-Cl)]RWA-NH2)
intrinsic activity at MC4-R in a normal system (MC4-R [1]; normal receptor density system): less than 0.1
functional status at MC4-R in cAMP assay (MC4-R [1]): functionally inactive
inhibition at 1 µM (MC3-R): 93%
decrease in body weight [2]: 2%
decrease in food intake [2]: 14%
24 hour decrease in food intake [3]: 4%
inhibition at 1 µM (MC4-R [4]): 100%
Penile Erection IV ([5]; IV): No
penile erection response ([5]; IV): no penile erection response
Efficacy/Intrinsic Activity (MC4-R [6]): None
inhibition at 1 µM (MC1-R): 60%
inhibition at 1 µM (MC5-R): 79%
EC50 (MC4-R [7]): 55 nM
Efficacy/Intrinsic Activity (MC4-R [7]): 0.67

Structure (SMILES): N=C(N)NCCC[C@H](NC(=O)[C@@H](Cc1ccc(Cl)cc1)NC(=O)[C@H](COCc1ccccc1)NC(=O)CCCCCCN)C(=O)N[C@@H](Cc1c[nH]c2ccccc12)C(N)=O [Example 1, NH2—(CH2)6—C(═O)-Ser(Bzl)-(D)Phe(4-Cl)-Arg-Trp-NH2] (H-[Ahp]S(Bn)[dPhe(4-Cl)]RW-NH2)
intrinsic activity at MC4-R in a normal system (MC4-R [1]; normal receptor density system): 0.32
functional status at MC4-R in cAMP assay (MC4-R [1]): partial agonist (intrinsic activity between 0.1 (10%) and 0.7 (70%) is classified as a partial agonist)
inhibition at 1 µM (MC3-R): 94%
decrease in food intake [2]: 21%
inhibition at 1 µM (MC4-R [4]): 99%
Ki (MC4-R [4]): 3 nM
Penile Erection ICV ([5]; ICV): No
penile erection response ([5]; ICV, 0.01 to 5 nmol): no penile erection response
Efficacy/Intrinsic Activity (MC4-R [6]): None
inhibition at 1 µM (MC1-R): 33%
inhibition at 1 µM (MC5-R): 73%
EC50 (MC4-R [7]): 21 nM
Efficacy/Intrinsic Activity (MC4-R [7]): 0.97
maximal decrease in food intake ([8]; IN, 10 μg/kg): 16%
maximal decrease in food intake ([8]; IP, 3 mg/kg): 26%

EC50 (MC4-R [1]; normal receptor density system): 9 nM
intrinsic activity at MC4-R in a normal system (MC4-R [1]; normal receptor density system): 0.4
Ki (MC3-R; read-out: Ki (nM) (NDP-α-MSH) In Normal System, MC3-R): 232 nM
Ki (MC4-R [4]): 11 nM
Efficacy/Intrinsic Activity (MC4-R [6]): None
Ki (MC1-R): 1880 nM
Ki (MC5-R; read-out: Ki (nM) (NDP-α-MSH) In Normal System, MC5-R): 250 nM
EC50 (MC4-R [7]): 51 nM
Efficacy/Intrinsic Activity (MC4-R [7]): 0.18
Structure (SMILES): CC(=O)N[C@H](Cc1ccc(C)cc1C)C(=O)N1C[C@@H](C)N(C(=O)Cc2ccc3ccccc3c2)C[C@@H]1CCCNC(=N)N [Example 30, N-{(R)-1-(2,4 dimethyl-benzyl)-2-[(2S,5R)-2-(3-guanidino-propyl)-5-methyl-4-(2-naphthalen-2-yl-acetyl)-piperazin-1-yl]-2-oxo-ethyl}-acetamide]
functional status at MC4-R in cAMP assay (MC4-R [1]): partial agonist (intrinsic activity between 0.1 (10%) and 0.7 (70%) is classified as a partial agonist)
Penile Erection IV ([5]; IV): No
penile erection response ([5]; IV, 0.0003 to 0.03 mg/kg): no penile activity response
inhibition in vivo at 3 mg/kg ([8]; IP, 3 mg/kg, read-out: maximal decrease in food intake): 8%
